In US6548540B2, “Method of treating cancer using dithiocarbamate derivatives” (Charlotte-Mecklenburg Hospital Authority, priority 1998, dated 2003):
Read-outs that look alike come from different tables or passages of the source.

Legend:
M1619 melanoma cells = assay: DNA cell cycle by flow cytometry; type: cell-based, human; conditions: 24 hours
Experimental: To study the effect of disulfiram on the DNA cell cycle, cells were grown to confluence in 25 cm^2 plastic flasks and treated for with 10% FBS plus DMSO vehicle, FBS and DMSO vehicle plus 250 μg/ml ceruloplasmin as a source of copper, FBS plus 5 μM disulfiram or FBS plus 5 μM disulfiram and 250 μg/ml ceruloplasmin. After 24 hours cells were trypsinized, washed twice in cold DPBS with 1 mM EDTA and 1% BSA, fixed 30 minute in ice-cold 70% ethanol, and stained by incubation for 30 minutes at 37° C. in a 10 μg/ml solution of propidium iodide in DPBS and 1 mg/ml RNase A. DNA cell cycle measurements were made using a FACStar^PLUS Flow Cytometer (Becton-Dickenson, San Jose, Calif.).
The antiproliferative activity of dithiocarbamate disulfides depends on complexation with copper. PDTC induces apoptosis in normal thymocytes that is mediated by complexation of copper from fetal bovine serum in the medium and subsequent facilitation of copper transport into cells. […] Unsynchronized M1619 melanoma cells were grown in the presence of DMSO vehicle (A), 5 μM disulfiram (B), or 5 μM disulfiram plus 250 μg/ml ceruloplasmin (Cerulo) as a source of copper (C). Twenty-four hours later, cells were harvested and flow cytometric analysis was performed. The proportion of nuclei in each phase of the cell cycle (brackets) was determined with MODFIT DNA analysis software. Disulfiram increases the portion of cells in S phase. The combination of disulfiram and ceruloplasmin further increases the number of cells in S phase, prevents progression into the G2-M cell cycle and induces apoptosis.

[1] = system: Adenosquamous lung carcinoma NCI-H596; assay: MTT proliferation assay, adenosquamous lung carcinoma; type: cell-based; conditions: Homo sapiens, read-out: Mean Percent Inhibition of Growth; for inhibition at 0.625 µM: disulfiram 0.625 μM; for inhibition at 1.25 µM: disulfiram 1.25 μM; for inhibition at 2.5 µM: disulfiram 2.5 μM; for inhibition at 5 µM: disulfiram 5.0 μM
Experimental: Human malignant cell lines were obtained from American Type Tissue Culture Collection (Rockville, Md.). Melanoma cells lines CRL 1585 and 1619 were cultured in RPMI 1640 (GIBCO-BRL, Life Technologies, Grand Island, N.Y.) with 10% FBS and passed with nonenzymatic Cell Dissociation Solution® (Sigma). The prostate adenocarcinoma cell line CRL 1435 (PC-3) was also cultured in RPMI 1640 with 10% FBS but passed with 0.05% trypsin and 0.53 mM EDTA. The squamous lung carcinoma NCI-H520 and the adenosquamous lung carcinoma NCI-H596 cell lines were grown in RPMI 1640 supplemented with 10% FBS, 10 mM HEPES and 1.0 mM sodium pyruvate and passed with trypsin/EDTA. The small cell lung carcinoma NCI-H82 was cultured as a suspension in RPMI 1640 with 10% FBS. All of the above were grown in a 37° C. humidified environment containing 5% CO2/air. The breast carcinoma cell line MDA-MB-453 was grown in a 37° C. humidified environment with free gas exchange with atmospheric air using Leibovitz's L-15 medium with 2 mM L-glutamine and 10% FBS and was passed with trypsin/EDTA.
The effect of disulfiram (0.15 to 5.0 μM), diethyldithiocarbamate (DDC, 1.0 μM) or PDTC (0.625 to 5.0 μM) on proliferation of malignant cell lines was studied in cultures stimulated with 10% FBS. Cell numbers were quantitated 24-72 hours later. In some experiments disulfiram or PDTC were added immediately after cells were plated. In other experiments, cells were plated and allowed to grow for 24-72 hours before fresh media with disulfiram or PDTC was added, and cell numbers were assayed 24-72 hours later. Synergy was studied between disulfiram and N,N′-bis(2-chloroethyl-N-nitrosourea (carmustine or BCNU, 1.0 to 1,000 μM) or cisplatin (0.1 to 100 μg/ml) added to medium. The effect of metals on disulfiram was studied with 0.2 to 10 μM copper (provided as CuSO4), zinc (as ZnCl2), silver (as silver lactate) or gold (as HAuCl4.3H2O) ions added to growth medium. No pH changes occurred with addition of metal salts to culture medium. To provide a biologically relevant source of copper, in some experiments medium was supplemented with human ceruloplasmin at doses replicating low and high normal adult serum concentrations (250 and 500 μg/ml).
Proliferation of cultured cells was quantitated using a previously reported calorimetric method based upon metabolic reduction of the soluble yellow tetrazolium dye 3-[4,5-dimethylthiazol]-2yl-2,5-diphenyl tetrazolium bromide (MTT) to its insoluble purple formazan by the action of mitochondrial succinyl dehydrogenase (See, e.g., S. J. Hirst, et al., “Quantifying proliferation of cultured human and rabbit airway smooth muscle in response to serum and platelet derived growth factor,” Am. J. Respir. Cell Mol. Biol. 7:574-581 (1992); R. Dashtaki, et al. R., supra; S. S. Brar, et al., “Requirement for reactive oxygen species in serum-induced and platelet-derived growth factor-induced growth of airway smooth muscle,” J. Biol. Chem. 274:20017-20026 (1999)). This assay empirically distinguishes between dead and living cells. For proliferation studies, cells were seeded into 24-well uncoated plastic plates (Costar) at 50,000 cells per well and cultured with respective media and mitogens. After 24-96 hours, medium was removed, cells were washed twice with 1 ml of sterile Dulbecco's modified phosphate buffered saline without Ca^2+ or Mg^2+ (DPBS), the medium was replaced with 1 ml/well fresh medium containing 100 μg/ml MTT, and plates were incubated an additional hour. MTT-containing medium was removed, 0.5 ml dimethylsulfoxide (DMSO) was added to each well, and the absorbance of the solubilized purple formazan dye was measured at 540 nm. A total of 4-6 wells were studied at each treatment condition. Preliminary studies were performed with 50-200 μg/ml MTT incubated for 15 minutes to 3 hours to determine the optimum concentration and incubation time at which the rate of conversion was linear and proportional to the number of cells present. […]

[2] = 5 μM disulfiram plus 250 μg/ml ceruloplasmin
[3] = treatment after 24 hours of growth, additional 24 hours
[4] = treatment initially, after 48 hours, 10% FBS

SMILES: CCN(CC)C(=S)SSC(=S)N(CC)CC [Disulfiram, tetraethylthiuram disulfide]
- apoptotic cells (M1619 melanoma cells; [2]): 6%
- cells in G2-M (M1619 melanoma cells; [2]): none
- cells in S phase (M1619 melanoma cells; [2]): Over two-thirds
- cell cycle distribution (M1619 melanoma cells; 5 μM disulfiram): increases the portion in S phase
- inhibition at 0.625 µM [1, 3]: 30 ± 3%
- inhibition at 0.625 µM [1, 4]: 47 ± 4%
- inhibition at 1.25 µM [1, 3]: 30 ± 3%
- inhibition at 1.25 µM [1, 4]: 57 ± 4%
- inhibition at 2.5 µM [1, 3]: 29 ± 1%
- inhibition at 2.5 µM [1, 4]: 50 ± 3%
- inhibition at 5 µM [1, 3]: 34 ± 3%
- inhibition at 5 µM [1, 4]: 50 ± 4%
